The values below come from ChEMBL document CHEMBL3045208, “Synthesis and Inhibitory Effect on Photosynthetic Electron Transport of 1,3,5-Triazinylcarboxylic Acid Derivatives” (J Pestic Sci, 2005).

Molecules are shown by their SMILES.

Test [1] deals with Photosystem II protein D1 (Spinacia oleracea, UniProt P69560). The experiment in a line: Inhibition of photosynthetic electron transport protein complex in Spinacia oleracea (spinach) leaf thylakoid.
Test [2] concerns the target Chloroplast thylakoid membrane protein (psbA) (Chenopodium album) (UniProt Q31945). The experiment in a line: Selectivity ratio of I50 for photosynthetic electron transport protein complex in atrazine-resistant Chenopodium album thylakoid to I50 for photosynthetic electron transport protein complex in wild type Chenopodium album thylakoid.
Test [3] in a line: Inhibition of photosynthetic electron transport protein complex in Spinacia oleracea (spinach) leaf thylakoid.

Chain of Chloroplast thylakoid membrane protein (psbA) (Chenopodium album) (Q31945 1-69): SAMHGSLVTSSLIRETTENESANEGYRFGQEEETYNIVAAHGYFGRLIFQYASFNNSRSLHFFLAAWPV

As for `CCOC(=O)c1nc(C)nc(NC(C)CC)n1` (centres undefined), in test [1], the pI50 stood at 4.37.
Turning to `CCNc1nc(Cl)nc(NC(C)C)n1` [ATRAZINE], the Selectivity ratio in test [2] was determined as 324. The molecule also came in with a pI50 in test [3] of 6.73.
As for `COC(=O)c1nc(C)nc(NCc2ccccc2)n1`, the pI50 in test [1] was 4.
As to `CCOC(=O)c1nc(C)nc(NC(C)C)n1`, the Selectivity ratio in test [2] amounted to 2.45. Further, in test [1], the pI50 was found to be 6.11.
`CCOC(=O)c1nc(C)nc(NCc2ccccc2)n1`: the Selectivity ratio in test [2] worked out at 0.98. Also, in test [1], the pI50 amounted to 4.88.
In the case of `C#CCNc1nc(C)nc(C(=O)OCC)n1`, the Selectivity ratio in test [2] came to 1.23.
The molecule `Cc1nc(CF)nc(NCc2ccccc2)n1` had a pI50 in test [3] of 4.98.
In the case of `Cc1nc(NCc2ccccc2)nc(C(F)(F)F)n1`, the Selectivity ratio in test [2] worked out at 2.6. In test [3], this molecule registered a pI50 of 6.85.
As to `Cc1nc(NCc2ccccc2)nc(C(F)F)n1`, in test [2], the Selectivity ratio came to 2.5. This molecule also came in with a pI50 in test [3] of 5.63.
